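48-hour exposure; five concentrations; linearly interpolated endpoints. TGI is the concentration that stops growth completely.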

One assay relates to MCF7 breast. Briefly: NCI anticancer screen, dose series, 48 h.
As to `COc1ccc2nc(N/N=C/c3sccc3C)cc(C)c2c1`, the TGI was determined as 55.5 µM.

Take `C=C(C)C1CCC(C(=O)O)CC1` (stereo not drawn): the TGI is over 100 µM.

Turning to `O=c1[nH]c2cc(C(F)(F)F)ccc2nc1C(F)(F)F`, the TGI was over 100 µM.

Consider `Cc1ccc(C(=O)N/N=C(\N=Nc2cccc([N+](=O)[O-])c2)c2ccc(N(CCC#N)CCC#N)cc2C)cc1`, for which the TGI was over 68.1 µM.

`O=C1/C(=C\c2ccc([N+](=O)[O-])cc2)N(S(=O)(=O)c2ccccc2)c2ncccc21` came in with a TGI of over 100 µM.

`O=C(O)c1c2c(cc3c1CC(Cc1ccccc1)C3=O)CCC2` (stereo not drawn) had a TGI of over 100 µM.

For `OC(CC1CCCCN1)c1ccc2c(c1)oc1ccccc12` (stereo not drawn), the TGI was over 100 µM.

With `C=CC[C@]1(/C=N/O)CN(S(=O)(=O)CC[Si](C)(C)C)C[C@H]2CC=CC[C@H]21`, the TGI was 39.6 µM.

In turn, `Nc1cc([N+](=O)[O-])ccc1C(=O)N1CCC[C@H]1CO` displayed a TGI of over 100 µM.

For the compound `O=C1OC(CCCN2CCCCC2)(c2ccccc2)CC12CCCC2` (stereo not drawn), the TGI was over 100 µM.

With `NC(=Nc1ccccc1Cl)c1ccccc1N`, the TGI is over 100 µM.

Turning to `O=C1NC(=S)N/C1=C\c1cccs1`, the TGI was over 100 µM.

In the case of `CSc1c(C(=O)Nc2ccccc2)c(N)n(N)c(=O)c1C#N`, the TGI was over 100 µM.

Regarding `COC(=O)C1=C(OC(=O)/C(=C/c2ccccc2)c2ccc(Cl)cc2Cl)C(C(=O)OC)[C@@]2(O)[C@@H](C(=O)OC)[C@H](C)C[C@@H]1[C@@H]2C(=O)OC` (stereo partly drawn), the TGI is over 100 µM.

For the compound `C[C@@H](C(=O)O)N1C(c2ccco2)=C(/C(C=O)=C\c2ccco2)C(=O)/C1=C\c1ccco1`, the TGI was over 100 µM.

As to `O=C(/C=C/c1ccc(O)c(O)c1)OCC(OC(=O)/C=C/c1ccc(O)c(O)c1)C(=O)O` (stereo not drawn), the TGI was over 100 µM.

`Cc1cc(C)nc(NS(=O)(=O)c2ccc(Nc3c4ccccc4nc4ccc(C(=O)Nc5ccc(S(N)(=O)=O)cc5)cc34)cc2)n1` returned a TGI of over 100 µM.

`CCOC(=O)/C=C(\C(=O)OCC)n1cc(C)c(=O)n(Cc2cn(CCCCOC(C)=O)nn2)c1=O` showed a TGI of 24.8 µM.

Compound `O=C1C2=Cc3ccccc3OC2(O)Oc2cc3ccccc3cc21` (stereo not drawn) came in with a TGI of over 100 µM.

In the next assay the test system is MOLT-4 leukemia. Briefly: NCI anticancer screen, dose series, 48 h.
For the compound `CC1(C)OCN(c2ccc(N3CCOCC3)cc2)Cn2c1nc1ccccc12`, the TGI was over 100 µM.

On to `Cc1cc(C)c2c(=O)cc(-c3cccc4ccccc34)[nH]c2n1`, for which the TGI was determined as 42.7 µM.

The compound `COc1ccc2nc(N/N=C/c3sccc3C)cc(C)c2c1` had a TGI of 50.7 µM.

`C=C(C)C1CCC(C(=O)O)CC1` (stereo not drawn) came in with a TGI of over 100 µM.

For `O=c1[nH]c2cc(C(F)(F)F)ccc2nc1C(F)(F)F`, the TGI is over 100 µM.

In turn, `Cc1ccc(C(=O)N/N=C(\N=Nc2cccc([N+](=O)[O-])c2)c2ccc(N(CCC#N)CCC#N)cc2C)cc1` registered a TGI of over 82.6 µM.

For the compound `O=C1/C(=C\c2ccc([N+](=O)[O-])cc2)N(S(=O)(=O)c2ccccc2)c2ncccc21`, the TGI stood at 13.5 µM.

In the case of `O=C(O)c1c2c(cc3c1CC(Cc1ccccc1)C3=O)CCC2` (stereo not drawn), the TGI is over 100 µM.

For `OC(CC1CCCCN1)c1ccc2c(c1)oc1ccccc12` (stereo not drawn), the TGI turned out to be 67.1 µM.

The compound `C=CC[C@]1(/C=N/O)CN(S(=O)(=O)CC[Si](C)(C)C)C[C@H]2CC=CC[C@H]21` showed a TGI of 52.2 µM.

For `Nc1cc([N+](=O)[O-])ccc1C(=O)N1CCC[C@H]1CO`, the TGI is over 100 µM.

Compound `O=C1OC(CCCN2CCCCC2)(c2ccccc2)CC12CCCC2` (stereo not drawn) registered a TGI of over 100 µM.

The compound `NC(=Nc1ccccc1Cl)c1ccccc1N` showed a TGI of over 100 µM.

For the compound `O=C1NC(=S)N/C1=C\c1cccs1`, the TGI was over 100 µM.

With `CCN1C[C@]2(C)CC[C@H](O)C34C1C(C[C@@H]32)[C@@]1(O)CC[C@H]2C[C@@H]4[C@@H]1[C@H]2O`, the TGI is over 100 µM.

In the case of `CSc1c(C(=O)Nc2ccccc2)c(N)n(N)c(=O)c1C#N`, the TGI is over 100 µM.

Compound `COC(=O)C1=C(OC(=O)/C(=C/c2ccccc2)c2ccc(Cl)cc2Cl)C(C(=O)OC)[C@@]2(O)[C@@H](C(=O)OC)[C@H](C)C[C@@H]1[C@@H]2C(=O)OC` (stereo partly drawn) registered a TGI of over 100 µM.

Compound `C[C@@H](C(=O)O)N1C(c2ccco2)=C(/C(C=O)=C\c2ccco2)C(=O)/C1=C\c1ccco1` came in with a TGI of over 100 µM.

`O=C(/C=C/c1ccc(O)c(O)c1)OCC(OC(=O)/C=C/c1ccc(O)c(O)c1)C(=O)O` (stereo not drawn) had a TGI of over 100 µM.

`Cc1cc(C)nc(NS(=O)(=O)c2ccc(Nc3c4ccccc4nc4ccc(C(=O)Nc5ccc(S(N)(=O)=O)cc5)cc34)cc2)n1` had a TGI of over 100 µM.

Take `CCOC(=O)/C=C(\C(=O)OCC)n1cc(C)c(=O)n(Cc2cn(CCCCOC(C)=O)nn2)c1=O`: the TGI came out at 11.6 µM.

In the case of `O=C1C2=Cc3ccccc3OC2(O)Oc2cc3ccccc3cc21` (stereo not drawn), the TGI was over 100 µM.

The compound `CC1(c2cccc(C3CC4(CCC3=O)OCCCCO4)c2)OCCO1` (stereo not drawn) registered a TGI of over 100 µM.

For another assay, the system named is NCI-H23 lung. Briefly: NCI anticancer screen, dose series, 48 h.
Consider `CC1(C)OCN(c2ccc(N3CCOCC3)cc2)Cn2c1nc1ccccc12`, for which the TGI is over 100 µM.

`Cc1cc(C)c2c(=O)cc(-c3cccc4ccccc34)[nH]c2n1`: the TGI is over 61.6 µM.

`COc1ccc2nc(N/N=C/c3sccc3C)cc(C)c2c1` gave a TGI of 28.9 µM.

`C=C(C)C1CCC(C(=O)O)CC1` (stereo not drawn) had a TGI of over 100 µM.

Take `O=c1[nH]c2cc(C(F)(F)F)ccc2nc1C(F)(F)F`: the TGI came out at 94.2 µM.

Consider `Cc1ccc(C(=O)N/N=C(\N=Nc2cccc([N+](=O)[O-])c2)c2ccc(N(CCC#N)CCC#N)cc2C)cc1`, for which the TGI was over 82.8 µM.

Compound `O=C1/C(=C\c2ccc([N+](=O)[O-])cc2)N(S(=O)(=O)c2ccccc2)c2ncccc21` displayed a TGI of 42.1 µM.

With `O=C(O)c1c2c(cc3c1CC(Cc1ccccc1)C3=O)CCC2` (stereo not drawn), the TGI was over 100 µM.

Turning to `OC(CC1CCCCN1)c1ccc2c(c1)oc1ccccc12` (stereo not drawn), the TGI is over 100 µM.

Regarding `C=CC[C@]1(/C=N/O)CN(S(=O)(=O)CC[Si](C)(C)C)C[C@H]2CC=CC[C@H]21`, the TGI was over 100 µM.

The compound `Nc1cc([N+](=O)[O-])ccc1C(=O)N1CCC[C@H]1CO` returned a TGI of over 100 µM.

In the case of `O=C1OC(CCCN2CCCCC2)(c2ccccc2)CC12CCCC2` (stereo not drawn), the TGI is over 100 µM.

Compound `NC(=Nc1ccccc1Cl)c1ccccc1N` returned a TGI of over 100 µM.

`O=C1NC(=S)N/C1=C\c1cccs1` came in with a TGI of over 100 µM.

In turn, `CCN1C[C@]2(C)CC[C@H](O)C34C1C(C[C@@H]32)[C@@]1(O)CC[C@H]2C[C@@H]4[C@@H]1[C@H]2O` registered a TGI of over 100 µM.

Take `CSc1c(C(=O)Nc2ccccc2)c(N)n(N)c(=O)c1C#N`: the TGI is over 100 µM.

The compound `COC(=O)C1=C(OC(=O)/C(=C/c2ccccc2)c2ccc(Cl)cc2Cl)C(C(=O)OC)[C@@]2(O)[C@@H](C(=O)OC)[C@H](C)C[C@@H]1[C@@H]2C(=O)OC` (stereo partly drawn) showed a TGI of over 100 µM.

Take `C[C@@H](C(=O)O)N1C(c2ccco2)=C(/C(C=O)=C\c2ccco2)C(=O)/C1=C\c1ccco1`: the TGI is over 100 µM.

`O=C(/C=C/c1ccc(O)c(O)c1)OCC(OC(=O)/C=C/c1ccc(O)c(O)c1)C(=O)O` (stereo not drawn) gave a TGI of over 100 µM.

For the compound `Cc1cc(C)nc(NS(=O)(=O)c2ccc(Nc3c4ccccc4nc4ccc(C(=O)Nc5ccc(S(N)(=O)=O)cc5)cc34)cc2)n1`, the TGI was over 100 µM.

With `CCOC(=O)/C=C(\C(=O)OCC)n1cc(C)c(=O)n(Cc2cn(CCCCOC(C)=O)nn2)c1=O`, the TGI was 27.8 µM.

In turn, `O=C1C2=Cc3ccccc3OC2(O)Oc2cc3ccccc3cc21` (stereo not drawn) registered a TGI of over 100 µM.

For the compound `CC1(c2cccc(C3CC4(CCC3=O)OCCCCO4)c2)OCCO1` (stereo not drawn), the TGI is over 100 µM.

A further assay concerns RPMI-8226 leukemia. In words: NCI anticancer screen, dose series, 48 h.
As to `CC1(C)OCN(c2ccc(N3CCOCC3)cc2)Cn2c1nc1ccccc12`, the TGI was 86.6 µM.

As for `Cc1cc(C)c2c(=O)cc(-c3cccc4ccccc34)[nH]c2n1`, the TGI was 29 µM.

As for `COc1ccc2nc(N/N=C/c3sccc3C)cc(C)c2c1`, the TGI was found to be 45.3 µM.

The values are drawn from PubChem BioAssay (NCI).
